Active and inactive are the calls of the source. The rule behind the calls is not given here.
Assays:
[1] = target: Multidrug efflux pump subunit AcrB (Escherichia coli (strain K12)) (UniProt P31224); experiment: Binding affinity to Escherichia coli K-12 MC1061 acrB assessed as susceptibility to compound efflux at 0.01 to 1 ug/ml after 16 hrs by plate reader assay
[2] = target: Acyl carrier protein (Escherichia coli (strain K12)) (UniProt P0A6A8); experiment: Inhibition of IPTG-stimulated Escherichia coli K-12 acpP at 8 fold MIC by microarray analysis
Sequence of Acyl carrier protein (Escherichia coli (strain K12)) (P0A6A8 whole entry): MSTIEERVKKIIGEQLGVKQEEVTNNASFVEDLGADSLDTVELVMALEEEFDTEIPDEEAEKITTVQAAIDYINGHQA

[3] = target: T1, Dihydrofolate synthase/folylpolyglutamate synthase (Escherichia coli (strain K12)) (UniProt P08192); experiment: Inhibition of IPTG-stimulated Escherichia coli K-12 folC at 16 fold MIC by microarray analysis
T1 sequence (whole entry): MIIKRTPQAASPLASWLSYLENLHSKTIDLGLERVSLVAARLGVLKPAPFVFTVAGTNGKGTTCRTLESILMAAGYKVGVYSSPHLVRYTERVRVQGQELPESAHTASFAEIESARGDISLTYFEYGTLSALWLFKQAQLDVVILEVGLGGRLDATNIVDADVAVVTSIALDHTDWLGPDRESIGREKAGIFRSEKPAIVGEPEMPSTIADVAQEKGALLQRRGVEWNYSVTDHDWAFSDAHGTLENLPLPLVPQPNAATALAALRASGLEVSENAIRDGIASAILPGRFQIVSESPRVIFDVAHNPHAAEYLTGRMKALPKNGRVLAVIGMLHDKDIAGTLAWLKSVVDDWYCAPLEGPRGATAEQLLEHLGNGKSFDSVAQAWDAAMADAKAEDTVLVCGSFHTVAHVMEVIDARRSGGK

[4] = target: CDP-diacylglycerol--glycerol-3-phosphate 3-phosphatidyltransferase (Escherichia coli (strain K12)) (UniProt P0ABF8); experiment: Inhibition of IPTG-stimulated Escherichia coli K-12 pgsA at 4 fold MIC by microarray analysis
Sequence of CDP-diacylglycerol--glycerol-3-phosphate 3-phosphatidyltransferase (Escherichia coli (strain K12)) (P0ABF8 whole entry): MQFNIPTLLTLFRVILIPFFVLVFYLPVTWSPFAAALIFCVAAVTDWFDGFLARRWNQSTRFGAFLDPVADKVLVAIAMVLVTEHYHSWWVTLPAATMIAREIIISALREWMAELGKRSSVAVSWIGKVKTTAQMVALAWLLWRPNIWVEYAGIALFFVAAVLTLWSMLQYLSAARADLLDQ

[5] = target: T2, Uncharacterized protein YdiL (Escherichia coli (strain K12)) (UniProt P76196); experiment: Inhibition of IPTG-stimulated Escherichia coli K-12 ydiL at 4 fold MIC by microarray analysis
T2 sequence (whole entry): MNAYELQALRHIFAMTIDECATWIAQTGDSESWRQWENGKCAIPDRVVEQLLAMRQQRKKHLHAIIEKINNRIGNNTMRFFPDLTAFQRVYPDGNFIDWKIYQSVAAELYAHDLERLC

[6] = target: Multifunctional CCA protein (Escherichia coli (strain K12)) (UniProt P06961); experiment: Inhibition of IPTG-stimulated Escherichia coli K-12 cca at 4 fold MIC by microarray analysis
Sequence of Multifunctional CCA protein (Escherichia coli (strain K12)) (P06961 whole entry): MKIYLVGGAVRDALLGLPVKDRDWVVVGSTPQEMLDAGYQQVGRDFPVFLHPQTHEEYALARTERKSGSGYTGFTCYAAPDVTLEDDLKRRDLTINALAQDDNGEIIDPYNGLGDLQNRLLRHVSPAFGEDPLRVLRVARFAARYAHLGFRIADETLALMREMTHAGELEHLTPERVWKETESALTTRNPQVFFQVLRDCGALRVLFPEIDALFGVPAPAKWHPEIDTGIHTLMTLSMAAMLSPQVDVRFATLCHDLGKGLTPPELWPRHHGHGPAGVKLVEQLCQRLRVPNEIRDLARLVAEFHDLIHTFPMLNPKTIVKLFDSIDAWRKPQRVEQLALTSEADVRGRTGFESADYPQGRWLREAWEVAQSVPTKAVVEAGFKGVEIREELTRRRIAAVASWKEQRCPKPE

[7] = target: Guanylate kinase (Escherichia coli (strain K12)) (UniProt P60546); experiment: Inhibition of IPTG-stimulated Escherichia coli K-12 gmk at 4 fold MIC by microarray analysis
Sequence of Guanylate kinase (Escherichia coli (strain K12)) (P60546 whole entry): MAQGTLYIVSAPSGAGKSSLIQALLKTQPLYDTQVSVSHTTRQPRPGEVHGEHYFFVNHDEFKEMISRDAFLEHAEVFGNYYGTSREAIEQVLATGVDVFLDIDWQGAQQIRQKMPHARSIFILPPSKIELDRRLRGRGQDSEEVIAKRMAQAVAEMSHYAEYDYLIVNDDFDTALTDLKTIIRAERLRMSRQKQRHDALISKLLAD

[8] = target: 1-acyl-sn-glycerol-3-phosphate acyltransferase (Escherichia coli (strain K12)) (UniProt P26647); experiment: Inhibition of IPTG-stimulated Escherichia coli K-12 plsC at 4 fold MIC by microarray analysis
[9] = target: Large ribosomal subunit protein bL28 (Escherichia coli (strain K12)) (UniProt P0A7M2); experiment: Inhibition of IPTG-stimulated Escherichia coli K-12 rpmB at 4 fold MIC by microarray analysis
[10] = target: T3, Outer membrane protein TolC (Escherichia coli (strain K12)) (UniProt P02930); experiment: Inhibition of IPTG-stimulated Escherichia coli K-12 tolC at 16 fold MIC by microarray analysis
T3 sequence (whole entry): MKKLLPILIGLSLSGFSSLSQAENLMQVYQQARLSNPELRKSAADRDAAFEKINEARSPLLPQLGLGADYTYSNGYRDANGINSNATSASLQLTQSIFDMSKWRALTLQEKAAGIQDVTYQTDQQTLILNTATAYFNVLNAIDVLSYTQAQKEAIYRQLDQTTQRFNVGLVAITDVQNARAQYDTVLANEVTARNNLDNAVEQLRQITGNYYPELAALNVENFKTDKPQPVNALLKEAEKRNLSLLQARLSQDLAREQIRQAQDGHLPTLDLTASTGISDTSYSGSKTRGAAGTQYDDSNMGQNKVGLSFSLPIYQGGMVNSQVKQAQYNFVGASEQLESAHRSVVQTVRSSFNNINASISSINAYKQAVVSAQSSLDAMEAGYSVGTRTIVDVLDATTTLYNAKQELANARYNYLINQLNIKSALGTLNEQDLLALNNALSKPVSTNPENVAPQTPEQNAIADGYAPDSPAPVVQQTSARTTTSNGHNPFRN

[11] = target: Fructose-bisphosphate aldolase class 2 (Escherichia coli K-12) (UniProt P0AB71); experiment: Inhibition of IPTG-stimulated Escherichia coli K-12 fbaA at 4 fold MIC by microarray analysis
Sequence of Fructose-bisphosphate aldolase class 2 (Escherichia coli K-12) (P0AB71 whole entry): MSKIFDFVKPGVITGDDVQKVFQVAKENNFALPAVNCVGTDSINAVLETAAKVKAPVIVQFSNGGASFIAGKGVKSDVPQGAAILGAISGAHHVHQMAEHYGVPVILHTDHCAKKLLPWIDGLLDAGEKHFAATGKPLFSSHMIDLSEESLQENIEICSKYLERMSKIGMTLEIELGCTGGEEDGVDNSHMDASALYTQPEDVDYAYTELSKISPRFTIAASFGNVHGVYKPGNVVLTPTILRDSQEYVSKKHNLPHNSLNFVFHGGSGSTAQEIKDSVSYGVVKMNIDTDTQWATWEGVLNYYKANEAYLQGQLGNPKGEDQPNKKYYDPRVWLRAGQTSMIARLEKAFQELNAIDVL

[12] = target: Octaprenyl diphosphate synthase (Escherichia coli (strain K12)) (UniProt P0AD57); experiment: Inhibition of IPTG-stimulated Escherichia coli K-12 ispB at 4 fold MIC by microarray analysis
Sequence of Octaprenyl diphosphate synthase (Escherichia coli (strain K12)) (P0AD57 whole entry): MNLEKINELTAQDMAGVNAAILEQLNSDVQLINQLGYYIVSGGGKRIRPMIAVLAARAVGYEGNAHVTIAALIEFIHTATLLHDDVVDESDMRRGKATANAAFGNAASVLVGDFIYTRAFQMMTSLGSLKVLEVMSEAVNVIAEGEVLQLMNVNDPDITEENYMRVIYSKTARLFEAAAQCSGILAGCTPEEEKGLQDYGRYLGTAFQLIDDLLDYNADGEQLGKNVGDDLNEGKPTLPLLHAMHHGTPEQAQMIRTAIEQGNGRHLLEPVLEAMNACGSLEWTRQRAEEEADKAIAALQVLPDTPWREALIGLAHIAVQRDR

[13] = target: Acyl carrier protein (Escherichia coli (strain K12)) (UniProt P0A6A8); experiment: Inhibition of IPTG-stimulated Escherichia coli K-12 acpP at 4 fold MIC by microarray analysis
[14] = target: Putative reactive intermediate deaminase TdcF (Escherichia coli (strain K12)) (UniProt P0AGL2); experiment: Inhibition of IPTG-stimulated Escherichia coli K-12 yhaR at 4 fold MIC by microarray analysis
Sequence of Putative reactive intermediate deaminase TdcF (Escherichia coli (strain K12)) (P0AGL2 whole entry): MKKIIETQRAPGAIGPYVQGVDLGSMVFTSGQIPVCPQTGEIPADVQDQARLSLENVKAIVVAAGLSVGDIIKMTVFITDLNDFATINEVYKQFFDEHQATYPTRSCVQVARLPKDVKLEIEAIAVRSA

[15] = target: Farnesyl diphosphate synthase (Escherichia coli K-12) (UniProt P22939); experiment: Inhibition of IPTG-stimulated Escherichia coli K-12 ispA at 4 fold MIC by microarray analysis
Sequence of Farnesyl diphosphate synthase (Escherichia coli K-12) (P22939 whole entry): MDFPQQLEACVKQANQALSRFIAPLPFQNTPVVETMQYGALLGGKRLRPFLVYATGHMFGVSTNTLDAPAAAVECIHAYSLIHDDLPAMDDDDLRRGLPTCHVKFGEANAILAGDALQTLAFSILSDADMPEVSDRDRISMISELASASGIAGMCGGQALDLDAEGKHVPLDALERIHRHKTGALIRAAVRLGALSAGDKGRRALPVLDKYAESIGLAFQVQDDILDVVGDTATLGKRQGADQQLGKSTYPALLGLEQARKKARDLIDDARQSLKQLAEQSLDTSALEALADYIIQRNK

[16] = target: UDP-N-acetylglucosamine 1-carboxyvinyltransferase (Escherichia coli K-12) (UniProt P0A749); experiment: Inhibition of IPTG-stimulated Escherichia coli K-12 murA at 4 fold MIC by microarray analysis
Sequence of UDP-N-acetylglucosamine 1-carboxyvinyltransferase (Escherichia coli K-12) (P0A749 whole entry): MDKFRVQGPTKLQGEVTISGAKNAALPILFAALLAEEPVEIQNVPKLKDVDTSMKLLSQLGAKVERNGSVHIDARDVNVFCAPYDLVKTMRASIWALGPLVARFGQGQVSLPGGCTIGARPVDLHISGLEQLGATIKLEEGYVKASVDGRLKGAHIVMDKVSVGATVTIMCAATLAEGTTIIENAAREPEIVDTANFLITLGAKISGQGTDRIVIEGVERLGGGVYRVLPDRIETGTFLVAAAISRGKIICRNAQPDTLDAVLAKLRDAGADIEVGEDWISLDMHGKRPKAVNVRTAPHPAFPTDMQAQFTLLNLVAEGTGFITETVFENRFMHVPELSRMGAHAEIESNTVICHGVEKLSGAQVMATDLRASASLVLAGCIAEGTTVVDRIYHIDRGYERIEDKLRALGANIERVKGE

[17] = target: 3-oxoacyl-[acyl-carrier-protein] synthase 1 (Escherichia coli K-12) (UniProt P0A953); experiment: Inhibition of IPTG-stimulated Escherichia coli K-12 fabB at 8 fold MIC by microarray analysis
Sequence of 3-oxoacyl-[acyl-carrier-protein] synthase 1 (Escherichia coli K-12) (P0A953 whole entry): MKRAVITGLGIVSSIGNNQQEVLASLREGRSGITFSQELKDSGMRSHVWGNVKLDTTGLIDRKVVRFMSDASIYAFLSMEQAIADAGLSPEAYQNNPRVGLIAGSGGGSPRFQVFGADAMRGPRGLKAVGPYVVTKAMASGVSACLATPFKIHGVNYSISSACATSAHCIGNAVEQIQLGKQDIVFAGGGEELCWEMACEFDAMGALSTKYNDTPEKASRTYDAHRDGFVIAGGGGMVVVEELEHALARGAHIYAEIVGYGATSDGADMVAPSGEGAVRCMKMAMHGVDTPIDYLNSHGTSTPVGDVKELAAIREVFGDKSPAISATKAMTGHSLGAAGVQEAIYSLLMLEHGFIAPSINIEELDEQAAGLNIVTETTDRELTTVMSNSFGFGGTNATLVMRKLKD

[18] = target: Octaprenyl diphosphate synthase (Escherichia coli (strain K12)) (UniProt P0AD57); experiment: Inhibition of IPTG-stimulated Escherichia coli K-12 ispB at 8 fold MIC by microarray analysis
[19] = target: T1, Dihydrofolate synthase/folylpolyglutamate synthase (Escherichia coli (strain K12)); experiment: Inhibition of IPTG-stimulated Escherichia coli K-12 folC at 4 fold MIC by microarray analysis
[20] = target: UDP-N-acetylmuramoyl-L-alanyl-D-glutamate--2,6-diaminopimelate ligase (Escherichia coli (strain K12)) (UniProt P22188); experiment: Inhibition of IPTG-stimulated Escherichia coli K-12 murE at 4 fold MIC by microarray analysis
Sequence of UDP-N-acetylmuramoyl-L-alanyl-D-glutamate--2,6-diaminopimelate ligase (Escherichia coli (strain K12)) (P22188 whole entry): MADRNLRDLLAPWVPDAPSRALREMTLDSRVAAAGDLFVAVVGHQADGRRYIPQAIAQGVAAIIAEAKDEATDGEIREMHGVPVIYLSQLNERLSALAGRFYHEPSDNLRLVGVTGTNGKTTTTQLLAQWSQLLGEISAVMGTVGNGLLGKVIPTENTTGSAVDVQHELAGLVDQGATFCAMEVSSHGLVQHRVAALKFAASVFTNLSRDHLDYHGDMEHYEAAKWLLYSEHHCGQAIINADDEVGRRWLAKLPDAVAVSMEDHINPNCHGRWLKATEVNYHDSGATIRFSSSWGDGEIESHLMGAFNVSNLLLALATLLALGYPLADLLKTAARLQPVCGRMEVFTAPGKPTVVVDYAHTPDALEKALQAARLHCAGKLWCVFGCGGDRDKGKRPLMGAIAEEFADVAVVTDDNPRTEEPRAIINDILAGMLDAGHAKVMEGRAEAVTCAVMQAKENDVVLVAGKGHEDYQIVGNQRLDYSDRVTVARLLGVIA

[21] = target: Uncharacterized protein YdfB (Escherichia coli (strain K12)) (UniProt P29009); experiment: Inhibition of IPTG-stimulated Escherichia coli K-12 ydfB at 4 fold MIC by microarray analysis
Sequence of Uncharacterized protein YdfB (Escherichia coli (strain K12)) (P29009 whole entry): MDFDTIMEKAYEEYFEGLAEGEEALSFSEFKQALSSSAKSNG

[22] = target: 3-oxoacyl-[acyl-carrier-protein] synthase 1 (Escherichia coli K-12) (UniProt P0A953); experiment: Inhibition of IPTG-stimulated Escherichia coli K-12 fabB at 4 fold MIC by microarray analysis
[23] = target: tRNA threonylcarbamoyladenosine biosynthesis protein TsaE (Escherichia coli (strain K12)) (UniProt P0AF67); experiment: Inhibition of IPTG-stimulated Escherichia coli K-12 yjeE at 4 fold MIC by microarray analysis
[24] = target: T4, Iron-sulfur cluster insertion protein ErpA (Escherichia coli (strain K12)) (UniProt P0ACC3); experiment: Inhibition of IPTG-stimulated Escherichia coli K-12 yadR at 16 fold MIC by microarray analysis
T4 sequence (whole entry): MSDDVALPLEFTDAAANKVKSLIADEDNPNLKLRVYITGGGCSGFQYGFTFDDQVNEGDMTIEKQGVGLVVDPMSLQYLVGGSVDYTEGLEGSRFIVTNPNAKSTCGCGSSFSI

[25] = target: T5, Cell division protein FtsA (Escherichia coli (strain K12)) (UniProt P0ABH0); experiment: Inhibition of IPTG-stimulated Escherichia coli K-12 ftsA at 4 fold MIC by microarray analysis
T5 sequence (whole entry): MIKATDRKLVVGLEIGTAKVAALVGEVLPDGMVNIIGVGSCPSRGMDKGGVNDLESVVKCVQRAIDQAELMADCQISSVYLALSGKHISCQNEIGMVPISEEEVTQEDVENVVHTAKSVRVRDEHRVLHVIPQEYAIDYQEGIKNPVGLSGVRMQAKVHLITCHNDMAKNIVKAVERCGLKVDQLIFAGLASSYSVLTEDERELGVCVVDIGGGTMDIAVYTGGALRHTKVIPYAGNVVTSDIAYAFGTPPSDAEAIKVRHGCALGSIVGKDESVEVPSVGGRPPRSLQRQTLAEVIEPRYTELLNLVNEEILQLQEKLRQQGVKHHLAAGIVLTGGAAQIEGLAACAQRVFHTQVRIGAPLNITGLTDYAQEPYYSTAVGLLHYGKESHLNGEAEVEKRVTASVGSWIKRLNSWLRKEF

[26] = target: T4, Iron-sulfur cluster insertion protein ErpA (Escherichia coli (strain K12)); experiment: Inhibition of IPTG-stimulated Escherichia coli K-12 yadR at 4 fold MIC by microarray analysis
[27] = target: T3, Outer membrane protein TolC (Escherichia coli (strain K12)); experiment: Inhibition of IPTG-stimulated Escherichia coli K-12 tolC at 4 fold MIC by microarray analysis
[28] = target: D-alanine--D-alanine ligase B (Escherichia coli K-12) (UniProt P07862); experiment: Inhibition of IPTG-stimulated Escherichia coli K-12 ddlB at 8 fold MIC by microarray analysis
[29] = target: D-alanine--D-alanine ligase B (Escherichia coli K-12) (UniProt P07862); experiment: Inhibition of IPTG-stimulated Escherichia coli K-12 ddlB at 4 fold MIC by microarray analysis
[30] = target: Small ribosomal subunit protein bS18 (Escherichia coli (strain K12)) (UniProt P0A7T7); experiment: Inhibition of IPTG-stimulated Escherichia coli K-12 rpSR at 4 fold MIC by microarray analysis
[31] = target: T4, Iron-sulfur cluster insertion protein ErpA (Escherichia coli (strain K12)); experiment: Inhibition of IPTG-stimulated Escherichia coli K-12 yadR at 8 fold MIC by microarray analysis
[32] = target: UDP-3-O-acyl-N-acetylglucosamine deacetylase (Escherichia coli K-12) (UniProt P0A725); experiment: Inhibition of IPTG-stimulated Escherichia coli K-12 envA at 4 fold MIC by microarray analysis
Sequence of UDP-3-O-acyl-N-acetylglucosamine deacetylase (Escherichia coli K-12) (P0A725 whole entry): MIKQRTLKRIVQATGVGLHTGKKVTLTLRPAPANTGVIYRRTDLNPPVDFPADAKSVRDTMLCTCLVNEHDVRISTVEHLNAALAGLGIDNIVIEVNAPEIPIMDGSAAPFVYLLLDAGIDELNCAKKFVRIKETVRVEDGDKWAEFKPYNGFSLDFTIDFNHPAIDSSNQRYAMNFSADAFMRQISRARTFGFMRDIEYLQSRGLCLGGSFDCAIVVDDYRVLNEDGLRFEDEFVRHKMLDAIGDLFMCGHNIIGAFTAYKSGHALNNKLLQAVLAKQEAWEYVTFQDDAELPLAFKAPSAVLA

[33] = target: D-alanine--D-alanine ligase B (Escherichia coli K-12) (UniProt P07862); experiment: Inhibition of IPTG-stimulated Escherichia coli K-12 ddlB at 16 fold MIC by microarray analysis
[34] = target: T5, Cell division protein FtsA (Escherichia coli (strain K12)); experiment: Inhibition of IPTG-stimulated Escherichia coli K-12 ftsA at 16 fold MIC by microarray analysis
[35] = target: T5, Cell division protein FtsA (Escherichia coli (strain K12)); experiment: Inhibition of IPTG-stimulated Escherichia coli K-12 ftsA at 8 fold MIC by microarray analysis

Sequence of Multidrug efflux pump subunit AcrB (Escherichia coli (strain K12)) (P31224 whole entry): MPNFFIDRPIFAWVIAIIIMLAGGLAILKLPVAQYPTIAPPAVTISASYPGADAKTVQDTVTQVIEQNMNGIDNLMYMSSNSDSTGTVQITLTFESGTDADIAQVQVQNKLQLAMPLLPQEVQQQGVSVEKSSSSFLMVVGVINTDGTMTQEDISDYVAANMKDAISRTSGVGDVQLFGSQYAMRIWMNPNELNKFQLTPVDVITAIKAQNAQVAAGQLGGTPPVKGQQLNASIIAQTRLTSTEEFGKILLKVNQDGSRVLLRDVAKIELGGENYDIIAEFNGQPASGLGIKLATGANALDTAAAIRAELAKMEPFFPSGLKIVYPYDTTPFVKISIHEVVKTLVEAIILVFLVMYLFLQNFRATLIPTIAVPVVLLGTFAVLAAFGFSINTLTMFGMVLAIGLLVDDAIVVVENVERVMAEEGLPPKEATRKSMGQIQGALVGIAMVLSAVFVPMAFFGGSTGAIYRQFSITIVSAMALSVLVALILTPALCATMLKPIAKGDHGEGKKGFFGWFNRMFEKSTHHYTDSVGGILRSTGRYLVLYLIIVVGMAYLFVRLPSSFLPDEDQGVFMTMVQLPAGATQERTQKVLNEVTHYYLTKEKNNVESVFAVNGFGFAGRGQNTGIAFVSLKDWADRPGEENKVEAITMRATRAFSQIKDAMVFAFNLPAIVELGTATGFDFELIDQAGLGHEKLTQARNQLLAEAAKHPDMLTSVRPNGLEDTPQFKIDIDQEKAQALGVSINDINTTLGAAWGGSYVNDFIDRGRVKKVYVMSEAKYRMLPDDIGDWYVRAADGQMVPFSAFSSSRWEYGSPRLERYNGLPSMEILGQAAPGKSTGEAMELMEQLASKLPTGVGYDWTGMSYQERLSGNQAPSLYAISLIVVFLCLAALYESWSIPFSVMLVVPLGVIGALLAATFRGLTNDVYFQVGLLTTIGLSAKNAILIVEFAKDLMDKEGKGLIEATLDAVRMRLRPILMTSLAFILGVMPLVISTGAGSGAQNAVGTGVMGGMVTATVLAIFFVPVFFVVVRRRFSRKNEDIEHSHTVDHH

With `CCn1cc(C(=O)O)c(=O)c2cc(F)c(N3CCNCC3)cc21` the Activity [1] was “inactive”.

With `C[C@@H]1O[C@@H]1P(=O)(O)O` the inhibition [2] was “Active”, the inhibition [3] was “Active” and the inhibition [4] was “Active”. For the same compound, the inhibition [5] was “Active”, the inhibition [6] was “Active” and the inhibition [7] was “Active”. The inhibition [8] was “Active”, the inhibition [9] was “Active” and the inhibition [10] was “Active”. The inhibition [11] was “Active”, the inhibition [12] was “Active” and the inhibition [13] was “Active”. The inhibition [14] was “Active”, the inhibition [15] was “Active” and the inhibition [16] was “Active”. The inhibition [17] was “Active”, the inhibition [18] was “Active” and the inhibition [19] was “Active”. For the same compound, the inhibition [20] was “Active”, the inhibition [21] was “Active” and the inhibition [22] was “Active”.

`N[C@@H]1CONC1=O` was tested, and the inhibition [23] was “Active”, the inhibition [24] was “Active” and the inhibition [25] was “Active”. The inhibition [26] was “Active”, the inhibition [27] was “Active” and the inhibition [28] was “Active”. For the same compound, the inhibition [29] was “Active”, the inhibition [30] was “Active” and the inhibition [31] was “Active”. For the same compound, the inhibition [32] was “Active”, the inhibition [33] was “Active” and the inhibition [34] was “Active”. For the same compound, the inhibition [35] was “Active”.

— ChEMBL document CHEMBL1212733, “Chemical genomics in Escherichia coli identifies an inhibitor of bacterial lipoprotein targeting” (Nat Chem Biol, 2009)
